Results taken from patent US7098372B1, “Pharmaceutical compositions and methods of using secreted frizzled related protein” (Wyeth, priority 1999, dated 2006).

Columns and labels:
Format in all cases: cell-based, human
hOB SFRP gene fragment = assay: RADE (differential-display PCR) of hOB cell lines treated with osteogenic agents; details: 24 hr
Excerpt: It can also be seen that the hOB-01-C1 cells express high basal levels of this gene.
The hOB SFRP gene fragment was identified using RADE (rapid analysis of differential expression) technology as described by Shiue 1997 Drug Develop. Res. 41: 142–159, the whole of which is incorporated herein. Three hOB cell lines (hOB-03-C5, hOB-03-CE6 and hOB-01-C1), representing three distinct stages of differentiation (proliferative, mature and preosteocytic, respectively) were used to isolate and identify SFRP. The hOB cell lines were established and cultured as previously described (Bodine et al. 1996 J. Bone Miner. Res. 11: 806–819; Bodine et al. 1996 Endocrinology 137: 4592–4604; Bodine et al. 1997 J. Cell. Biochem. 65: 368–387). […] However, in contrast to osteosarcoma cells (Stein and Lian 1993 Endocrine Rev. 14: 424–442), the hOB cell lines were faithful to the proliferation/differentiation relationship at the nonpermissive temperature (>37° C.) when the T-antigen mutant is inactivated. The cell lines were seeded into 150 mm dishes at ˜40,000 cells/cm^2 with growth medium [D-MEM/F-12 containing 10% (v/v) heat-inactivated fetal bovine serum (FBS), 1% (v/v) Penicillin-Streptomycin and 2 mM GlutaMAX-1] and incubated overnight at 34° C. […]

hOB SFRP mRNA = assay: Northern blot analysis of hOB SFRP mRNA expression; details: for regulation of SFRP mRNA: SaOS-2 human osteosarcoma cells
Excerpt: The hOB SFRP gene fragment was identified using RADE (rapid analysis of differential expression) technology as described by Shiue 1997 Drug Develop. Res. 41: 142–159, the whole of which is incorporated herein. Three hOB cell lines (hOB-03-C5, hOB-03-CE6 and hOB-01-C1), representing three distinct stages of differentiation (proliferative, mature and preosteocytic, respectively) were used to isolate and identify SFRP. The hOB cell lines were established and cultured as previously described (Bodine et al. 1996 J. Bone Miner. Res. 11: 806–819; Bodine et al. 1996 Endocrinology 137: 4592–4604; Bodine et al. 1997 J. Cell. Biochem. 65: 368–387). […] However, in contrast to osteosarcoma cells (Stein and Lian 1993 Endocrine Rev. 14: 424–442), the hOB cell lines were faithful to the proliferation/differentiation relationship at the nonpermissive temperature (>37° C.) when the T-antigen mutant is inactivated. The cell lines were seeded into 150 mm dishes at ˜40,000 cells/cm^2 with growth medium [D-MEM/F-12 containing 10% (v/v) heat-inactivated fetal bovine serum (FBS), 1% (v/v) Penicillin-Streptomycin and 2 mM GlutaMAX-1] and incubated overnight at 34° C. The next day, the medium was removed, the cells were rinsed with phosphate-buffered saline (PBS), 20 ml of serum-free medium was added to the dishes [phenol red-free D-MEM/F-12 (Gibco/BRL) containing 0.25% (w/v) bovine serum albumin (BSA, Pentex crystallized, Bayer), 1% (v/v) Penicillin-Streptomycin, 2 mM GlutaMAX-1, […] ascorbate-2-phosphate (Wako), and 10 nM menadione sodium bisulfite (vitamin K3)], and the dishes were incubated at 39° C. for 24 hr. The next day, the medium was removed and the cells were treated at 39° C. for an additional 24 hr with 20 ml of fresh serum-free medium containing either vehicle (Control), 8 nM human parathyroid hormone 1–34 (PTH), 100 nM prostaglandin E2 (PGE2) or 0.1 nM human transforming growth factor-β1 (TGF-β1). PTH, PGE2 and TGF-β1 are known osteogenic agents (Whitfield and Morley 1995 Trends Pharmaceut. Sci. 16:382–386; Jee and Ma 1997 Bone 21:297–304; Centrella et al. 1994 Endocrine Rev. 15:27–39). After the treatment period, the dishes were rinsed with PBS and total cellular RNA was isolated from the nontreated and treated cells using TRIzol according to the manufacturers instructions (GibcoBRL). RADE was then performed with the isolated RNA samples as above; the regulated gene fragments were identified, cloned and sequenced. These experiments identified a total of 82 differentially expressed genes. A BLAST (basic local alignment search tool) search of the public data bases was performed on the RADE-obtained gene fragments; one of the gene fragments was highly homologous to mouse SFRP-1. This gene fragment was identified during RADE using the following primer pair: 5′-[…]-3′ (HT11A)3′ end (reverse primer) and 5′-[…]-3′ (H-AP1) 5′ end (forward primer), which sequences are SEQ ID NO 11 and SEQ ID NO 12, respectively. The expression and regulation of the gene fragment having homology to mouse cDNA SFRP-1 was confirmed by Northern blot analysis.
In order to confirm the regulation of hOB SFRP gene expression by different osteogenic agents (i.e., the DNA fragment identified in Example 1, above), the hOB cell lines were treated with PTH, PGE2, and TGF-β1; RNA was then isolated for Northern hybridizations. The experiments were performed as follows. The hOB cell lines were seeded into 150 mm dishes and treated as described in Example 1, except that polyA+ RNA was isolated from total cellular RNA using Oligotex mRNA maxi kits as described by the manufacturer (Qiagen). Northern blot analysis was performed using either the excised RADE hOB SFRP gene fragment, the cloned hOB SFRP gene fragment or the cloned full-length hOB SFRP cDNA as a ^32P-labeled probe (as described in Bodine et al. 1996 J. Bone Miner. Res. 11: 806–819, which is incorporated herein). Each of these probes detected a 4.4–4.6 kb message in the hOB cells. […]

hOB-03-C5 cells = assay: Generation of histone-associated DNA fragments
Procedure: The hypothesis that up-regulation of SFRP-1/FRP-1/SARP-2 gene expression accelerates hOB cell death, while down-regulation of SFRP-1/FRP-1/SARP-2 gene expression suppresses cell death, was next examined. […] The next day, the 6-well plates were rinsed with PBS, placed in BSA-medium, and treated at 39° C. in the absence or presence of either 100 nM PGE2 (in order to up-regulate SFRP-1/FRP-1/SARP-2 steady-state mRNA levels; panels A & B), or 0.01–1.0 nM TGF-β1 (in order to down-regulate SFRP-1/FRP-1/SARP-2 message levels; panel C). Incubating cells in serum-free medium is a common method to induce apoptosis (Melkonyan et al. 1997 Proc. Natl. Acad. Sci. USA 94: 13636–13641), and the hOB-03-C5, hOB-03-CE6 and hOB-01-C1 cell lines all stopped dividing and gradually died under these conditions. […] In contrast, treatment of the hOB-01-C1 cells with TGF-β1 increased cell viability about 2-fold in a dose-dependent manner. […] This observation was consistent with the induction of apoptosis, which is known to result in cytoplasmic blebbing, the loss of water and a decrease in cell volume (Mesner and Kaufmann 1997 in Advances in Pharmacology, vol. 41, pp. 57–88). […] Finally, treatment of the hOB-03-C5 cells with PGE2 increased annexin V (a specific marker for apoptosis) binding to the cell as measured by flow cytometry (FIG. 11).

| Compound | regulation of hOB SFRP gene fragment (hOB SFRP gene fragment; hOB-03-C5 and hOB-03-CE6 cell lines, 100 nM) | regulation of SFRP mRNA (hOB SFRP mRNA; 24 hr, 37° C.) | time course of hOB SFRP mRNA expression (hOB SFRP mRNA; hOB-03-C5 cells, 100 nM, 2 to 24 hr) | hOB SFRP mRNA expression (hOB SFRP mRNA; hOB-03-C5 cells, 100 nM, 24 hr) | EC50 (hOB SFRP mRNA; hOB-03-C5 cells, increasing concentrations, 24 hr, read-out: EC50 for up-regulation of hOB SFRP mRNA expression) | EC50 for up-regulation of hOB SFRP mRNA, times higher than in the hOB-03-C5 cells (hOB SFRP mRNA; hOB-03-CE6 cells) | hOB SFRP mRNA expression (hOB SFRP mRNA; maturation-stage hOB-03-CE6 cells) | up-regulation of steady-state SFRP mRNA levels (hOB SFRP mRNA; normal hOB cells (explant cultures), 100 nM, 24 hr, 37° C.) | histone-associated DNA fragments (hOB-03-C5 cells) | regulation of hOB SFRP gene fragment (hOB SFRP gene fragment; pre-osteocytic hOB-01-C1 cell line, 0.1 nM) | suppression of hOB SFRP mRNA levels (hOB SFRP mRNA; hOB-01-C1 cells, 100 pM, 24 hr) |
| --- | --- | --- | --- | --- | --- | --- | --- | --- | --- | --- | --- |
| CCCCC[C@H](O)/C=C/[C@H]1[C@H](O)CC(=O)[C@@H]1C/C=C\CCCC(=O)O [PGE2, prostaglandin E2] | strongly up-regulated | not regulated | up-regulated hOB SFRP mRNA expression in a time-dependent manner | completely up-regulated | ~8 nM | about 10 times | up-regulation | ~1.3 fold | resulted in the generation of histone-associated DNA fragments |  |  |
| human transforming growth factor-β1 [TGF-β1] |  | not regulated |  |  |  |  |  |  |  | down-regulated | 80% |
